Drawing on US9233983B2, “Substituted hetero-bicyclic compounds, compositions and medicinal applications thereof” (ADVINUS THERAPEUTICS LIMITED, priority 2012, dated 2016), this text covers IC50 for 25 molecules.

Structures are written as SMILES.

human Bruton's Tyrosine Kinase (Btk), sequence (Q06187 whole entry): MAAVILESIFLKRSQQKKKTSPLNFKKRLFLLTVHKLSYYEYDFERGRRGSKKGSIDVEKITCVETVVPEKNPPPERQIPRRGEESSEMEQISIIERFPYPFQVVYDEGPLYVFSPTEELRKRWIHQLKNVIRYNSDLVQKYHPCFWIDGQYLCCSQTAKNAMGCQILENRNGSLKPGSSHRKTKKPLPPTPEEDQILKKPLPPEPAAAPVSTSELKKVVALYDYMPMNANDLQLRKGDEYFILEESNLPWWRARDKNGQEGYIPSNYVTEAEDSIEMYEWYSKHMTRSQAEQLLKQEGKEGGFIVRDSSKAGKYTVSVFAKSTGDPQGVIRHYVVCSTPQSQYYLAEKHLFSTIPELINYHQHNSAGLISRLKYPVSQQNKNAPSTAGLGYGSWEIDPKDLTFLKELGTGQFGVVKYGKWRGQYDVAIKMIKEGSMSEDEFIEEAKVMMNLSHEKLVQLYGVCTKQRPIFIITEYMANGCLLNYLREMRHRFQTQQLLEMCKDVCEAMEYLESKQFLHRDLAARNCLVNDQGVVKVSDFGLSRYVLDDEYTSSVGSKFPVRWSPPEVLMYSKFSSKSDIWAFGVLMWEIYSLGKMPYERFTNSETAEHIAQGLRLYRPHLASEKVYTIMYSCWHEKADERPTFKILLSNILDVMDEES

The assay has as its target human Bruton's Tyrosine Kinase (Btk) (Homo sapiens (Human), UniProt Q06187). Kind of assay: Recombinant Human Bruton's Tyrosine Kinase (Btk) Inhibition Assay (HTRF KinEASE-TK). The format is biochemical. The note with it: 20 ng/ml rhBtk, 77 μM ATP (KM), 1 μM TK-Biotin substrate, 90 min; read-out: hBTK IC50. (Time-resolved FRET reads energy transfer from a long-lived donor to a nearby acceptor.)
On to `O=C1c2ccc(C3CC3)cc2OCCN1c1cccc(-c2ccnc3[nH]c(-c4ccc(C(O)CO)cc4)cc23)c1CO` (stereo not shown) [Example P-8, 8-cyclopropyl-4-[3-[2-[4-(1,2-dihydroxyethyl)phenyl]-1H-pyrrolo[2,3-b]pyridin-4-yl]-2-(hydroxymethyl)phenyl]-2,3-dihydro-1,4-benzoxazepin-5-one], for which the IC50 was 25 nM.

For `Cc1c(-c2ccnc3[nH]c(-c4ccc(CN5CCN(C)CC5)c(F)c4)cc23)cccc1N1CCOc2cc(C3CC3)ccc2C1=O` [Example B-19, 8-cyclopropyl-4-[3-[2-[3-fluoro-4-[(4-methylpiperazin-1-yl)methyl]phenyl]-lH-pyrrolo[2,3-b]pyridin-4-yl]-2-methyl-phenyl]-2,3-dihydro-1,4-benzoxazepin-5-one], the IC50 was determined as 190 nM.

Regarding `Cc1c(-c2ncnc3[nH]c(-c4cnn(C5CCN(C)CC5)c4)cc23)cccc1N1CCOc2cc(C3CC3)ccc2C1=O` [Example D-2, 8-cyclopropyl-4-[2-methyl-3-[6-[1-(1-methyl-4-piperidyl)pyrazol-4-yl]-7H-pyrrolo[2,3-d]pyrimidin-4-yl]phenyl]-2,3-dihydro-1,4-benzoxazepin-5-one], the 50% inhibitory concentration (IC50) was determined as 13 nM.

Turning to `CS(=O)(=O)N1CC=C(c2cc3c(-c4ccnc(N5CCOc6cc(C7CC7)cc(F)c6C5=O)c4CO)ccnc3[nH]2)CC1` [Example P-25, 8-cyclopropyl-6-fluoro-4-[3-(hydroxymethyl)-4-[2-(1-methylsulfonyl-3,6-dihydro-2H-pyridin-4-yl)-1H-pyrrolo[2,3-b]pyridin-4-yl]-2-pyridyl]-2,3-dihydro-1,4-benzoxazepin-5-one], the IC50 was determined as 618 nM.

With `CN1CCN(Cc2ccc(-c3cc4c(-c5cccc(N6CCOc7cc(C8CC8)ccc7C6=O)c5CO)ccnc4[nH]3)c(F)c2)CC1` [Example B-18, 8-cyclopropyl-4-[3-[2-[2-fluoro-4-[(4-methylpiperazin-1-yl)methyl]phenyl]-1H-pyrrolo[2,3-b]pyridin-4-yl]-2-(hydroxymethyl)phenyl]-2,3-dihydro-1,4-benzoxazepin-5-one], the IC50 was 9 nM.

For `Cc1c(-c2ncnc3[nH]c(-c4ccc(C(=O)N5CCCC(C(=O)O)C5)cc4)cc23)cccc1N1CCOc2cc(C3CC3)ccc2C1=O` (stereo not shown) [Example K-13, 1-[4-[4-[3-(8-cyclopropyl-5-oxo-2,3-dihydro-1,4-benzoxazepin-4-yl)-2-methyl-phenyl]-7H-pyrrolo[2,3-d]pyrimidin-6-yl]benzoyl]piperidine-3-carboxylic acid], the IC50 came to 133 nM.

As for `Cc1nn(C2CN(C)C2)cc1-c1cc2c(-c3cccc(N4CCOc5cc(C6CC6)ccc5C4=O)c3CO)ccnc2[nH]1` [Example E-1, 8-cyclopropyl-4-[2-(hydroxymethyl)-3-[2-[3-methyl-1-(1-methylazetidin-3-yl)pyrazol-4-yl]-1H-pyrrolo[2,3-b]pyridin-4-yl]phenyl]-2,3-dihydro-1,4-benzoxazepin-5-one], the IC50 was 9 nM.

Take `CN1CCN(Cc2ccc(-c3cc4c(-c5cccc(N6CCOc7cc(C8CC8)cnc7C6=O)c5CO)ccnc4[nH]3)nc2)CC1` [Example I-3, 8-cyclopropyl-4-[2-(hydroxymethyl)-3-[2-[5-[(4-methylpiperazin-1-yl)methyl]-2-pyridyl]-1H-pyrrolo[2,3-b]pyridin-4-yl]phenyl]-2,3-dihydropyrido[2,3-f][1,4]oxazepin-5-one]: the IC50 was found to be 35 nM.

With `Cc1c(-c2ncnc3[nH]c(C4=CCCNC4)cc23)cccc1N1CCOc2cc(C3CC3)ccc2C1=O` [Example P-4, 8-cyclopropyl-4-[2-methyl-3-[6-(1,2,3,6-tetrahydropyridin-5-yl)-7H-pyrrolo[2,3-d]pyrimidin-4-yl]phenyl]-2,3-dihydro-1,4-benzoxazepin-5-one], the IC50 was more than 1000 nM.

As to `Cc1c(-c2ncnc3[nH]c(-c4ccc(C5CCN(CCO)CC5)cc4)cc23)cccc1-n1ccc2cc(C3CC3)ccc2c1=O` [Example H-1, 6-cyclopropyl-2-[3-[6-[4-[1-(2-hydroxyethyl)-4-piperidyl]phenyl]-7H-pyrrolo[2,3-d]pyrimidin-4-yl]-2-methyl-phenyl]isoquinolin-1-one], the IC50 worked out at 13 nM.

As for `Cc1c(-c2ncnc3[nH]c(-c4ccc(CN5CCN(C)CC5)cc4)cc23)cccc1N1CCc2cc(C3CC3)ccc2C1=O` [Example B-3, 6-cyclopropyl-2-[2-methyl-3-[6-[4-[(4-methylpiperazin-1-yl)methyl]phenyl]-7H-pyrrolo[2,3-d]pyrimidin-4-yl]phenyl]-3,4-dihydroisoquinolin-1-one], the IC50 came out at 30 nM.

On to `Cc1c(-c2ncnc3[nH]c(-c4ccccc4)cc23)cccc1N1CCc2cc(C3CC3)ccc2C1=O` [Example M-2, 6-cyclopropyl-2-[2-methyl-3-(6-phenyl-7H-pyrrolo[2,3-d]pyrimidin-4-yl)phenyl]-3,4-dihydroisoquinolin-1-one], for which the IC50 is more than 1000 nM.

Consider `CN1CCN(c2ccc(-c3cc4c(-c5cccc(N6CCOc7cc(C8CC8)ccc7C6=O)c5CO)ccnc4[nH]3)nc2)CC1` [Example S-3, 8-cyclopropyl-4-[2-(hydroxymethyl)-3-[2-[5-(4-methylpiperazin-1-yl)-2-pyridyl]-1H-pyrrolo[2,3-b]pyridin-4-yl]phenyl]-2,3-dihydro-1,4-benzoxazepin-5-one], for which the IC50 stood at 3 nM.

Turning to `Cc1c(-c2ncnc3[nH]c(-c4ccc(CN5CCN(C)CC5)cc4)cc23)cccc1-n1ccc2cc(C3CC3)ccc2c1=O` [Example B-9, 6-cyclopropyl-2-[2-methyl-3-[6-[4-[(4-methylpiperazin-l-yl)methyl]phenyl]-7H-pyrrolo[2,3-d]pyrimidin-4-yl]phenyl]isoquinolin-1-one], the IC50 amounted to 10 nM.

On to `Cc1c(-c2ncnc3[nH]c(C4=CCN(CCCO)CC4)cc23)cccc1N1CCOc2cc(C3CC3)ccc2C1=O` [Example P-1, 8-cyclopropyl-4-[3-[6-[1-(3-hydroxypropyl)-3,6-dihydro-2H-pyridin-4-yl]-7H-pyrrolo[2,3-d]pyrimidin-4-yl]-2-methyl-phenyl]-2,3-dihydro-1,4-benzoxazepin-5-one], for which the IC50 was determined as 272 nM.

On to `O=C1c2c(F)cc(C3CC3)cc2OCCN1c1cccc(-c2ccnc3[nH]c(-c4ccc(OCCN5CCOCC5)cn4)cc23)c1CO` [Example Q-1, 8-cyclopropyl-6-fluoro-4-[2-(hydroxymethyl)-3-[2-[5-(2-morpholinoethoxy)-2-pyridyl]-1H-pyrrolo[2,3-b]pyridin-4-yl]phenyl]-2,3-dihydro-1,4-benzoxazepin-5-one], for which the IC50 amounted to 2.9 nM.

Regarding `Cc1c(-c2ncnc3[nH]c(-c4ccc(C(=O)N5CCCC5C(=O)O)cc4)cc23)cccc1N1CCOc2cc(C3CC3)ccc2C1=O` (stereo not shown) [Example K-12, 1-[4-[4-[3-(8-cyclopropyl-5-oxo-2,3-dihydro-1,4-benzoxazepin-4-yl)-2-methyl-phenyl]-7H-pyrrolo[2,3-d]pyrimidin-6-yl]benzoyl]pyrrolidine-2-carboxylic acid], the IC50 turned out to be 114 nM.

With `Cc1c(-c2ncnc3[nH]c(-c4ccc(C(=O)N5CCCCC5)cc4)cc23)cccc1N1CCOc2cc(C3CC3)ccc2C1=O` [Example K-5, 8-cyclopropyl-4-[2-methyl-3-[6-[4-(piperidine-1-carbonyl)phenyl]-7H-pyrrolo[2,3-d]pyrimidin-4-yl]phenyl]-2,3-dihydro-1,4-benzoxazepin-5-one], the IC50 came to 171 nM.

Consider `Cc1c(-c2ncnc3[nH]c(-c4cccc(CN5CCNCC5)c4)cc23)cccc1N1CCOc2cc(C3CC3)ccc2C1=O` [Example A-4, 8-cyclopropyl-4-[2-methyl-3-[6-[3-(piperazin-l-ylmethyl)phenyl]-7H-pyrrolo[2,3-d]pyrimidin-4-yl]phenyl]-2.3-dihydro-l,4-benzoxazepin-5-one], for which the IC50 stood at 396 nM.

Regarding `O=C1c2c(F)cc(C3CC3)cc2OCCN1c1cccc(-c2ccnc3[nH]c(C4=CCN(C5COC5)CC4)cc23)c1CO` [Example P-12, 8-cyclopropyl-6-fluoro-4-[2-(hydroxymethyl)-3-[2-[1-(oxetan-3-yl)-3,6-dihydro-2H-pyridin-4-yl]-1H-pyrrolo[2,3-b]pyridin-4-yl]phenyl]-2,3-dihydro-1,4-benzoxazepin-5-one], the half-inhibitory concentration (IC50) turned out to be 22 nM.

Regarding `CN1CCN(Cc2ccc(-c3cc4c(-c5cccc(-n6ccc7cc(C8CC8)ccc7c6=O)c5CO)ncnc4[nH]3)cc2)CC1` [Example B-8, 6-cyclopropyl-2-[2-(hydroxymethyl)-3-[6-[4-[(4-methylpiperazin-1-yl)methyl]phenyl]-7H-pyrrolo[2,3-d]pyrimidin-4-yl]phenyl]isoquinolin-1-one], the IC50 was 7 nM.

For the molecule `Cc1c(-c2ncnc3[nH]c(-c4ccc(C(=O)NCC(F)(F)F)cc4)cc23)cccc1N1CCOc2cc(C3CC3)ccc2C1=O` [Example K-7, 4-[4-[3-(8-cyclopropyl-5-oxo-2,3-dihydro-1,4-benzoxazepin-4-yl)-2-methyl-phenyl]-7H-pyrrolo[2,3-d]pyrimidin-6-yl]-N-(2,2,2-trifluoroethyl)benzamide], the IC50 is more than 1000 nM.

For the molecule `O=C(O)c1ccc(-c2cc3c(-c4cccc(N5CCOc6cc(C7CC7)ccc6C5=O)c4CO)ccnc3[nH]2)nc1` [Example P-7, 6-[4-[3-(8-cyclopropyl-5-oxo-2,3-dihydro-1,4-benzoxazepin-4-yl)-2-(hydroxymethyl)phenyl]-1H-pyrrolo[2,3-b]pyridin-2-yl]pyridine-3-carboxylic acid], the IC50 was found to be 46 nM.

On to `Cc1c(-c2ncnc3[nH]c(C4=CCN(CCO)CC4)cc23)cccc1N1CCOc2cc(C3CC3)ccc2C1=O` [Example P-2, 8-cyclopropyl-4-[3-[6-[1-(2-hydroxyethyl)-3,6-dihydro-2H-pyridin-4-yl]-7H-pyrrolo[2,3-d]pyrimidin-4-yl]-2-methyl-phenyl]-2,3-dihydro-1,4-benzoxazepin-5-one], for which the IC50 amounted to 611 nM.

For the molecule `Cc1c(-c2ncnc3[nH]c(-c4cccc(CN5CCNCC5)c4)cc23)cccc1N1CCc2cc(C3CC3)ccc2C1=O` [Example A-3, 6-cyclopropyl-2-[2-methyl-3-[6-[3-(piperazin-1-ylmethyl)phenyl]-7H-pyrrolo[2,3-d]pyrimidin-4-yl]phenyl]-3,4-dihydroisoquinolin-1-one], the 50% inhibitory concentration (IC50) is 515 nM.

As usually defined, the IC50 is the point on the concentration scale where inhibition reaches its midpoint.
